In PubChem BioAssay AID2060484 (Molecular Pharmacology Branch, DTP, NCI, 2025):

Test system: SUM149PT spheroids with HUVEC/MSC, viability
Experiment: Anticancer human tumor SUM149PT cell line growth inhibition [GQUAD];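 further: spheroids exposed to drugs for seven days before readout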;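 on viability, T/C: percent viability relative to DMSO vehicle control taken as 100%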
Settings: for IC50: curve of first compound; for viability, T/C: stronger effect = lower value
Procedure, shortened: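 Tumor cells were grown as complex spheroids with HUVEC endothelial cells and mesenchymal stem cells as stroma. G-quadruplex stabilizers were combined with targeted agents over half-log dilutions from near the clinical Cmax, or from 10 microM.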

[1] = second compound 0.0316 µM, first compound 0.0316 µM
[2] = second compound 0.0316 µM, first compound 0.1 µM
[3] = second compound 0.0316 µM, first compound 0.316 µM
[4] = second compound 0.0316 µM, first compound 1 µM
[5] = second compound 0.0316 µM, first compound 3.16 µM
[6] = second compound 0.0316 µM, first compound 10 µM
[7] = second compound 0.1 µM, first compound 0.0316 µM
[8] = second compound 0.1 µM, first compound 0.1 µM
[9] = second compound 0.1 µM, first compound 0.316 µM
[10] = second compound 0.1 µM, first compound 1 µM
[11] = second compound 0.1 µM, first compound 3.16 µM
[12] = second compound 0.1 µM, first compound 10 µM
[13] = second compound 0.316 µM, first compound 0.0316 µM
[14] = second compound 0.316 µM, first compound 0.1 µM
[15] = second compound 0.316 µM, first compound 0.316 µM
[16] = second compound 0.316 µM, first compound 1 µM
[17] = second compound 0.316 µM, first compound 3.16 µM
[18] = second compound 0.316 µM, first compound 10 µM
[19] = second compound 1 µM, first compound 0.0316 µM
[20] = second compound 1 µM, first compound 0.1 µM
[21] = second compound 1 µM, first compound 0.316 µM
[22] = second compound 1 µM, first compound 1 µM
[23] = second compound 1 µM, first compound 3.16 µM
[24] = second compound 1 µM, first compound 10 µM
[25] = second compound 3.16 µM, first compound 0.0316 µM
[26] = second compound 3.16 µM, first compound 0.1 µM
[27] = second compound 3.16 µM, first compound 0.316 µM
[28] = second compound 3.16 µM, first compound 1 µM
[29] = second compound 3.16 µM, first compound 3.16 µM
[30] = second compound 3.16 µM, first compound 10 µM
[31] = second compound 10 µM, first compound 0.0316 µM
[32] = second compound 10 µM, first compound 0.1 µM
[33] = second compound 10 µM, first compound 0.316 µM
[34] = second compound 10 µM, first compound 1 µM
[35] = second compound 10 µM, first compound 3.16 µM
[36] = second compound 10 µM, first compound 10 µM

SMILES: CC1COCCN1c1cc(C2(O)CC3CCC(C2)O3)c2cnn(-c3ccn[nH]3)c2n1 (stereo unspecified) + Cc1[nH]c2ccc(F)cc2c1-c1nc2c3cccnc3c3ncccc3c2[nH]1
- IC50 (second compound 0.0316 µM): 73.8 nM
- IC50 (second compound 0.1 µM): 77.8 nM
- IC50 (second compound 0.316 µM): 84.1 nM
- IC50 (second compound 1 µM): 76 nM
- IC50 (second compound 3.16 µM): 71.1 nM
- IC50 (second compound 10 µM): 61.9 nM
- viability, T/C [1]: 74.5%
- viability, T/C [2]: 40.2%
- viability, T/C [3]: 27.5%
- viability, T/C [4]: 23.9%
- viability, T/C [5]: 22%
- viability, T/C [6]: 15.9%
- viability, T/C [7]: 78.9%
- viability, T/C [8]: 40.5%
- viability, T/C [9]: 28.3%
- viability, T/C [10]: 22.6%
- viability, T/C [11]: 23.9%
- viability, T/C [12]: 15.4%
- viability, T/C [13]: 80.9%
- viability, T/C [14]: 45.6%
- viability, T/C [15]: 24.6%
- viability, T/C [16]: 25.5%
- viability, T/C [17]: 25.4%
- viability, T/C [18]: 14.7%
- viability, T/C [19]: 81.8%
- viability, T/C [20]: 40.2%
- viability, T/C [21]: 24.8%
- viability, T/C [22]: 23.5%
- viability, T/C [23]: 23.6%
- viability, T/C [24]: 17.6%
- viability, T/C [25]: 78.4%
- viability, T/C [26]: 38.2%
- viability, T/C [27]: 22.3%
- viability, T/C [28]: 25.8%
- viability, T/C [29]: 23.5%
- viability, T/C [30]: 15.3%
- viability, T/C [31]: 74.9%
- viability, T/C [32]: 32.2%
- viability, T/C [33]: 22.9%
- viability, T/C [34]: 23.1%
- viability, T/C [35]: 24.7%
- viability, T/C [36]: 16.2%

SMILES: Cn1ncnc1[C@H]1c2n[nH]c(=O)c3cc(F)cc(c23)N[C@@H]1c1ccc(F)cc1 + Cc1[nH]c2ccc(F)cc2c1-c1nc2c3cccnc3c3ncccc3c2[nH]1
- IC50 (second compound 0.0316 µM): > 316 nM
- IC50 (second compound 0.1 µM): > 316 nM
- IC50 (second compound 0.316 µM): 305 nM
- IC50 (second compound 1 µM): > 316 nM
- IC50 (second compound 3.16 µM): > 316 nM
- IC50 (second compound 10 µM): > 316 nM
- viability, T/C (second compound 0.0316 µM, first compound 0.000999 µM): 105%
- viability, T/C (second compound 0.0316 µM, first compound 0.00316 µM): 93.4%
- viability, T/C (second compound 0.0316 µM, first compound 0.00999 µM): 103%
- viability, T/C [1]: 88%
- viability, T/C (second compound 0.0316 µM, first compound 0.0999 µM): 69.8%
- viability, T/C [3]: 57.3%
- viability, T/C (second compound 0.1 µM, first compound 0.000999 µM): 90.4%
- viability, T/C (second compound 0.1 µM, first compound 0.00316 µM): 96.2%
- viability, T/C (second compound 0.1 µM, first compound 0.00999 µM): 87.6%
- viability, T/C [7]: 86.9%
- viability, T/C (second compound 0.1 µM, first compound 0.0999 µM): 73.2%
- viability, T/C [9]: 56.7%
- viability, T/C (second compound 0.316 µM, first compound 0.000999 µM): 109%
- viability, T/C (second compound 0.316 µM, first compound 0.00316 µM): 90.3%
- viability, T/C (second compound 0.316 µM, first compound 0.00999 µM): 95.2%
- viability, T/C [13]: 89.8%
- viability, T/C (second compound 0.316 µM, first compound 0.0999 µM): 65.4%
- viability, T/C [15]: 50%
- viability, T/C (second compound 1 µM, first compound 0.000999 µM): 94.6%
- viability, T/C (second compound 1 µM, first compound 0.00316 µM): 94.5%
- viability, T/C (second compound 1 µM, first compound 0.00999 µM): 96.3%
- viability, T/C [19]: 88%
- viability, T/C (second compound 1 µM, first compound 0.0999 µM): 66%
- viability, T/C [21]: 51%
- viability, T/C (second compound 3.16 µM, first compound 0.000999 µM): 88.6%
- viability, T/C (second compound 3.16 µM, first compound 0.00316 µM): 90.4%
- viability, T/C (second compound 3.16 µM, first compound 0.00999 µM): 96.2%
- viability, T/C [25]: 78%
- viability, T/C (second compound 3.16 µM, first compound 0.0999 µM): 67.7%
- viability, T/C [27]: 50%
- viability, T/C (second compound 10 µM, first compound 0.000999 µM): 85.3%
- viability, T/C (second compound 10 µM, first compound 0.00316 µM): 77.7%
- viability, T/C (second compound 10 µM, first compound 0.00999 µM): 88.8%
- viability, T/C [31]: 81.8%
- viability, T/C (second compound 10 µM, first compound 0.0999 µM): 65.4%
- viability, T/C [33]: 50.9%

SMILES: Nc1ccn(C2OC(CO)C(O)C2(F)F)c(=O)n1 (stereo unspecified) + Cc1cnc(CNC(=O)c2c(=O)c3ccc(N4CCCN(C)CC4)nc3n3c2sc2ccccc23)cn1
- IC50 (second compound 0.0316 µM): 49.4 nM
- IC50 (second compound 0.1 µM): < 31.6 nM
- IC50 (second compound 0.316 µM): < 31.6 nM
- IC50 (second compound 1 µM): < 31.6 nM
- IC50 (second compound 3.16 µM): < 31.6 nM
- IC50 (second compound 10 µM): < 31.6 nM
- viability, T/C [1]: 62.7%
- viability, T/C [2]: 29.1%
- viability, T/C [3]: 22.4%
- viability, T/C [4]: 17.9%
- viability, T/C [5]: 17.5%
- viability, T/C [6]: 12.2%
- viability, T/C [7]: 50%
- viability, T/C [8]: 31.6%
- viability, T/C [9]: 24.5%
- viability, T/C [10]: 18.6%
- viability, T/C [11]: 16.1%
- viability, T/C [12]: 14.5%
- viability, T/C [13]: 45.5%
- viability, T/C [14]: 29.5%
- viability, T/C [15]: 21.3%
- viability, T/C [16]: 17.3%
- viability, T/C [17]: 17.8%
- viability, T/C [18]: 14%
- viability, T/C [19]: 40.4%
- viability, T/C [20]: 28.7%
- viability, T/C [21]: 20.1%
- viability, T/C [22]: 17.2%
- viability, T/C [23]: 14.6%
- viability, T/C [24]: 14.3%
- viability, T/C [25]: 34.8%
- viability, T/C [26]: 27.1%
- viability, T/C [27]: 19.8%
- viability, T/C [28]: 17.1%
- viability, T/C [29]: 17.8%
- viability, T/C [30]: 14.5%
- viability, T/C [31]: 8.05%
- viability, T/C [32]: 9.51%
- viability, T/C [33]: 2.05%
- viability, T/C [34]: 0.66%
- viability, T/C [35]: 1.03%
- viability, T/C [36]: 2.03%
